Results on four compounds are retold here after patent US5229409A, “6-substituted-tetrahydrobenz[cd]indoles” (Eli Lilly and Company, priority 1991, dated 1993).

In test [1] the target is T1, 5-HT1A receptor (Rattus norvegicus, UniProt P19327).
T1 construct: the brains were rapidly chilled and dissected to obtain the hippocampi; from tissue; host or cells: hippocampi of male Sprague-Dawley rats (150-250 g), washed membranes
T1 sequence (P19327 1-422): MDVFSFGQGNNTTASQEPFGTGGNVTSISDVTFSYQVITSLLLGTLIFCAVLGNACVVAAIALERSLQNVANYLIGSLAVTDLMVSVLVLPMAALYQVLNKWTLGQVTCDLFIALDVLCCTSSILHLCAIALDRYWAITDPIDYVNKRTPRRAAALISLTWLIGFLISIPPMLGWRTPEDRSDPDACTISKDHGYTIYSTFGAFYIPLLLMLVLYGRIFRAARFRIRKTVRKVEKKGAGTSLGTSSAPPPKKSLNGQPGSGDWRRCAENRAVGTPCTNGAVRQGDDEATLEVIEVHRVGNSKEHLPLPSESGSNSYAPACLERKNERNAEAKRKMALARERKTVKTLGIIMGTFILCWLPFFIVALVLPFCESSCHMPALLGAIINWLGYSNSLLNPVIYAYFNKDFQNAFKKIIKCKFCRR
The experiment in a line: [3H]8-OH-DPAT binding to 5-HT1A sites in hippocampal membranes. The arrangement: species or system rat (male Sprague-Dawley). Particulars: [3H]8-OH-DPAT 1.0 nM, pH 7.4, 37° C. As for the experimental part:
The affinities of the compounds at the central […] described by Taylor, et al., (J. Pharmacol. Exp. Ther. 236:118-125, 1986). Membranes for the binding assay were prepared from male Sprague-Dawley rats (150-250 g). The animals were killed by decapitation, and the brains were rapidly chilled and dissected to obtain the hippocampi. The hippocampi were either prepared that day or stored frozen (-70° C.) until the day of preparation. Membranes were prepared by homogenizing the tissue in 40 volumes of ice-cold Tris-HCl buffer (50 mM, pH 7.4 at 22° C.) using a Techmar Tissumizer (setting 65 for 15 sec), and the homogenate was centrifuged at 39800 xg for 10 min. The resulting pellet then resuspended in the same buffer, and the centrifugation and resuspension process was repeated three additional times to wash the membranes. Between the second and third washes the resuspended membranes were incubated for 10 min at 37° C. to facilitate the removal of endogenous ligands. The final pellet was resuspended in 67 mM Tris-HCl, pH 7.4, to a concentration of 2 mg of tissue original wet weight/200 μl. This homogenate was stored frozen (-70° C.) until the day of the binding assay. […] The assay tubes were incubated for 10 min at 37° C, and the contents were then rapidly filtered through GF/B filters (pretreated with 0.5% polyethylenimine), followed by four one-mL washes with ice cold buffer. The radioactivity trapped by the filters was quantitated by liquid scintillation spectrometry, and specific [^3 H]8-OH-DPAT binding to the 5-HT1A sites was defined as the difference between [^3 H]8-OH-DPAT bound in the presence and absence of 10 μM 5-HT.
The affinity of the particular compound at the 5-HT1A receptor is expressed as IC50 value, i.e., the concentration required to inhibit 50% of the binding. The IC50 values were determined from 12-point competition curves using nonlinear regression (SYSTAT, SYSTAT, INC., Evanston, Ill.).

In test [2] the test system is serum corticosterone. Description: serum corticosterone concentration in vivo in rats. Details: species or system rat (male albino). Particulars: 1 hour. As for the experimental part: (§1) In another experiment certain compounds of the Examples were evaluated to determine ability to affect the 5-hydroxyindoles serotonin and 5-hydroxyindole acetic acid (5HIAA), and serum corticosterone, in vivo. Male albino rats were injected subcutaneously with an aqueous solution of the compound. The pH of the solution was adjusted as necessary to solubilize the compound. A control of the solution without the test compound was similarly injected into a control animal. The rats were decapitated one hour later. Trunk blood was collected and allowed to clot. After centrifugation, serum was stored frozen prior to analysis. The whole brain was removed and frozen on dry ice for storage prior to analysis. The serum corticosterone concentration was measured spectrofluorometrically using the procedure of Solem and Brinck-Johnson, "An Evaluation of a Method for Determination of Free Corticosteroids in Minute Quantities of Mouse Plasma", Scand. J. Clin. Lab. Invest., Suppl. 80, p. 1-14 (1965), incorporated herein by reference. 5-Hydroxyindoleacetic acid (5HIAA) concentration in whole brain was measured by liquid chromatography with electrochemical detection as reported by Fuller and Perry, "Effects of Buspirone and its Metabolite, 1-(2-pyrimidinyl)piperazine, on Brain Monoamines and Their Metabolites in Rats", J. Pharmacol. Exp. Ther., 248, p. 50-56 (1989), incorporated herein by reference.

In test [3] the target is T2, 5-HT1D receptor (Bos taurus, UniProt F1MGM3).
T2 construct: the caudate nuclei were dissected out and frozen at -70° C; tissue Pel-Freeze Biologicals; host or cells: bovine caudate nuclei, washed membranes
Description: [3H]5-HT binding to 5-HT1D sites in caudate nuclei membranes. Particulars: bovine caudate membranes, [3H]5-HT 1.7-1.9 nM, pH 7.4, 37° C. As for the experimental part: The affinities of the compounds at the central 5-HT1D binding sites were determined using a modification of the binding assay described by Heuring and Peroutka (J. Neurosci. 7:894-903, 1987). Bovine brains were obtained from Pel-Freeze Biologicals, and the caudate nuclei were dissected out and frozen at -70° C. until the time that the membranes were prepared for the binding assays. At that time the tissues were homogenized in 40 volumes of ice-cold Tris-HCl buffer (50 mM, pH 7.4 at 22° C.) with a Techmar Tissumizer (setting 65 for 15 sec), and the homogenate was centrifuged at 39,800 g for 10 min. The resulting pellet was then resuspended in the same buffer, and the centrifugation and resuspension process was repeated three additional times to wash the membranes. Between the second and third washes the resuspended membranes were incubated for 10 min at 37° C. to facilitate the removal of endogenous 5-HT. the final pellet was resuspended in Tris buffer to a concentration of 25 mg of original tissue wet weight/ml for use in the binding assay. […] The assay tubes were incubated for 10 min at 37° C., and the contents were then rapidly filtered through GF/B filters (pretreated with 0.5% polyethylenimine), followed by four one-mL washes with ice-cold buffer. The radioactivity trapped by the filters was quantitated by liquid scintillation spectrometry, and specific [^3 H]5-HT binding to the 5HT1D sites were defined as the difference between [^3 H]5-HT bound in the presence and absence of 10 μM 5-HT.
The affinities of compounds at the 5-HT1D receptor are expressed as IC50 values, i.e., the concentration required to inhibit 50% of the binding. These values were determined from 12-point competition curves using nonlinear regression (SYSTAT, SYSTAT, Inc. Evanston, Ill.).

Test [4] has as its system serotonin. The experiment in a line: whole brain serotonin concentration in vivo in rats. The arrangement: species or system rat (male albino). Particulars: 1 hour. The protocol: as §1
The mark [5] stands for this setting: 0.0003 mg/kg s.c., series 0.0003-0.03 mg/kg.
[6] abbreviates: 0.003 mg/kg s.c., series 0.0003-0.03 mg/kg.
[7] abbreviates: 0.03 mg/kg s.c., series 0.0003-0.03 mg/kg.
[8] abbreviates: 0.03 mg/kg s.c., series 0.03-3 mg/kg.
[9] abbreviates: 0.3 mg/kg s.c., series 0.03-3 mg/kg.
Setting [10] is: 3 mg/kg s.c., series 0.03-3 mg/kg.

T2 sequence (F1MGM3 1-403): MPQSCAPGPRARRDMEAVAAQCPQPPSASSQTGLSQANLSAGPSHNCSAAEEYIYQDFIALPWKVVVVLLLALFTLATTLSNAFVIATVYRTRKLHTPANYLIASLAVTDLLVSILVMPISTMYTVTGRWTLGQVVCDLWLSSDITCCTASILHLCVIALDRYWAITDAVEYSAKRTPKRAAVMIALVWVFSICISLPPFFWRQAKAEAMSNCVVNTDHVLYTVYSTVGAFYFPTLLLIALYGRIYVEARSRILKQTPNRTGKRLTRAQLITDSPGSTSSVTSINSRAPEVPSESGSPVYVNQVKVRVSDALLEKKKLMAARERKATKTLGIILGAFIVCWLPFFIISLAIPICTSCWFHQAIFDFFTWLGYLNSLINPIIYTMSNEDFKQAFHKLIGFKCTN

For orientation: IC50 means the midpoint of a concentration-inhibition curve. As for `CCCN(CCC)[C@@H]1Cc2c[nH]c3ccc(C(C)=O)c(c23)C1` [Example 8, (4S)-(-)-6-acetyl-4-(di-n-propylamino)-1,3,4,5-tetrahydrobenz[cd]indole], the IC50 was 0.12 nM in test [1] and 96.4 nM in test [3]. Besides, the “Serum Corticosterone” value in test [2] (setting [5]) turned out to be 3.4 ± 0.2 microg./100 ml; in test [2] (setting [6]), 3.8 ± 0.2 microg./100 ml; in test [2] (setting [7]) it was 40.3 ± 1.8 microg./100 ml; in test [2] (setting [8]), 47.0 ± 2.4 microg./100 ml; in test [2] (setting [9]), 47.3 ± 2.3 microg./100 ml; in test [2] (setting [10]), 45.4 ± 1.3 microg./100 ml. For the same compound, the Serotonin in test [4] (setting [5]) amounted to 2.91 ± 0.12 nmol/g; in test [4] (setting [6]), 2.65 ± 0.13 nmol/g; in test [4] (setting [7]), 3.30 ± 0.09 nmol/g; in test [4] (setting [8]), 2.58 ± 0.15 nmol/g; in test [4] (setting [9]) it was 2.78 ± 0.13 nmol/g; in test [4] (setting [10]) it was 2.63 ± 0.12 nmol/g.

Turning to `CCCN(CCC)[C@H]1Cc2c[nH]c3ccc(C(C)=O)c(c23)C1` [Example 7, (4R)-(+)-6-acetyl-4-(di-n-propylamino)-1,3,4,5-tetrahydrobenz[cd]indole], the IC50 in test [1] is 0.22 nM; in test [3] it was 7.46 nM. For the same compound, the “Serum Corticosterone” value was determined as 4.1 ± 0.6 microg./100 ml in test [2] (setting [5]); 3.6 ± 0.1 microg./100 ml in test [2] (setting [6]); 21.8 ± 2.1 microg./100 ml in test [2] (setting [7]); 41.8 ± 1.7 microg./100 ml in test [2] (setting [8]); 41.5 ± 5.3 microg./100 ml in test [2] (setting [9]). The Serotonin in test [4] (setting [5]) turned out to be 2.68 ± 0.11 nmol/g; in test [4] (setting [6]) it was 2.74 ± 0.07 nmol/g; in test [4] (setting [7]) it was 3.00 ± 0.10 nmol/g; in test [4] (setting [8]) it was 2.47 ± 0.07 nmol/g; in test [4] (setting [9]), 2.59 ± 0.14 nmol/g.

Take `CCCN(CCC)[C@H]1Cc2c[nH]c3ccc(C(=O)C(C)C)c(c23)C1` [Example 9, (4R)-(+)-6-(2-methylpropanoyl)-4-(di-n-propylamino)-1,3,4,5-tetrahydrobenz[cd]indole]: the half-maximal inhibitory concentration (IC50) in test [1] was 0.16 nM; in test [3], 1.27 nM. For the same compound, the “Serum Corticosterone” value in test [2] (setting [5]) is given as 4.1 ± 0.5 microg./100 ml; in test [2] (setting [6]) it was 6.0 ± 1.3 microg./100 ml; in test [2] (setting [7]), 9.1 ± 1.2 microg./100 ml; in test [2] (setting [8]), 7.7 ± 1.8 microg./100 ml; in test [2] (setting [9]), 40.8 ± 2.0 microg./100 ml; in test [2] (setting [10]), 30.8 ± 4.5 microg./100 ml. For the same compound, the Serotonin in test [4] (setting [5]) amounted to 2.76 ± 0.10 nmol/g; in test [4] (setting [6]), 2.94 ± 0.11 nmol/g; in test [4] (setting [7]), 3.08 ± 0.11 nmol/g; in test [4] (setting [8]) it was 2.56 ± 0.07 nmol/g; in test [4] (setting [9]) it was 2.94 ± 0.13 nmol/g; in test [4] (setting [10]), 2.65 ± 0.07 nmol/g.

Turning to `CCCN(CCC)C1Cc2c[nH]c3ccc(C(C)=O)c(c23)C1` (racemic) [Example 2, (±)-6-Acetyl-4-(di-n-propylamino)-1,3,4,5-tetrahydrobenz[cd]indole], the IC50 in test [1] was found to be 0.2 nM; in test [3], 18.4 nM. Moreover, the “Serum Corticosterone” value in test [2] (setting [5]) amounted to 3.8 ± 0.5 microg./100 ml; in test [2] (setting [6]), 3.6 ± 0.1 microg./100 ml; in test [2] (setting [7]), 36.7 ± 1.2 microg./100 ml; in test [2] (setting [8]), 33.4 ± 3.7 microg./100 ml; in test [2] (setting [9]), 39.1 ± 1.1 microg./100 ml; in test [2] (setting [10]), 13.8 ± 0.6 microg./100 ml. The Serotonin in test [4] (setting [5]) is 2.71 ± 0.06 nmol/g; in test [4] (setting [6]) it was 2.64 ± 0.11 nmol/g; in test [4] (setting [7]), 3.23 ± 0.11 nmol/g; in test [4] (setting [8]), 2.60 ± 0.09 nmol/g; in test [4] (setting [9]), 2.54 ± 0.14 nmol/g; in test [4] (setting [10]) it was 3.25 ± 0.01 nmol/g.
